Read-outs that look alike come from different tables or passages of the source.
Target: BRAF V600E (Homo sapiens, UniProt P15056, V600E)
Assay: HiBiT cellular BRAF^V600E degradation assay
Assay type: cell-based
Details: for DC50: concentration at which 50% of total cellular BRAF^V600E is degraded; for Emax: read-out: HiBit 24 h Emax
[1] = A375.10 cells, 24 h, residual protein remaining in the cell

Chain of BRAF V600E (P15056 whole entry V600E): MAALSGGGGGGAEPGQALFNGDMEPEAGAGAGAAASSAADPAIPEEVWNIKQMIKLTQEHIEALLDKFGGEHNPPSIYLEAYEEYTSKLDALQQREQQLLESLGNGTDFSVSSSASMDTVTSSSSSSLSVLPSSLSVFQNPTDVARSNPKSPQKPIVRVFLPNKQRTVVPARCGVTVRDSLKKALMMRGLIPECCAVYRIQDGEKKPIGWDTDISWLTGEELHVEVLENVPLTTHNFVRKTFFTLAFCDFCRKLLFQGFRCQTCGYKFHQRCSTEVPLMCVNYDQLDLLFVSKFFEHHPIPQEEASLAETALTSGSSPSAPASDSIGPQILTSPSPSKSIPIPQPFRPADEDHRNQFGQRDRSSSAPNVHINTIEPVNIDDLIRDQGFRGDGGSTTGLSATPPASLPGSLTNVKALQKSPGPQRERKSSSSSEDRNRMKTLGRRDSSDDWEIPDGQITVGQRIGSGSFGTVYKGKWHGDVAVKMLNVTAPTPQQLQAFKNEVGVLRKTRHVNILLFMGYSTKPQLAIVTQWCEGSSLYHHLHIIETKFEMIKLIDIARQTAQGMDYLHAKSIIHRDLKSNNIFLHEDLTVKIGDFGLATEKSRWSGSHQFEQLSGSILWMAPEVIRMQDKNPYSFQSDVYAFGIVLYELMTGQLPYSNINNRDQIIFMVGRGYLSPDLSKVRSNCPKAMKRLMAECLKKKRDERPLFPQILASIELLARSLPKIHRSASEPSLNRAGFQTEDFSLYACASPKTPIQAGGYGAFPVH

Emax [1] [%]	Compound	DC50 (A375.10 cells, 24 h) [nM]	Emax [%]
	CCN(C)S(=O)(=O)Nc1ccc(F)c(Oc2ccc3ncn(-c4cnc(N5CCN(C(=O)CN6CCC(c7cc(OC)c(NC8CCC(=O)NC8=O)cc7F)CC6)CC5)nc4)c(=O)c3c2)c1C#N (stereo not drawn) [Example 88, 6-[2-cyano-3-[[ethyl(methyl)sulfamoyl]amino]-6-fluorophenoxy]-3-[2-[4-[2-[4-[4-[(2,6-dioxopiperidin-3-yl)amino]-2-fluoro-5-methoxyphenyl]piperidin-1-yl]acetyl]piperazin-1-yl]pyrimidin-5-yl]-4-oxoquinazoline]	15.1	9.01
11.5	CCN(C)S(=O)(=O)Nc1ccc(F)c(Oc2ccc3ncn(-c4cnc(N5CCN(C(=O)CN6CCC(c7c(F)cc(NC8CCC(=O)NC8=O)cc7OC)CC6)CC5)nc4)c(=O)c3c2)c1C#N (stereo not drawn) [Example 89, 6-[2-cyano-3-[[ethyl(methyl)sulfamoyl]amino]-6-fluorophenoxy]-3-[2-[4-[2-[4-[4-[(2,6-dioxopiperidin-3-yl)amino]-2-fluoro-6-methoxyphenyl]piperidin-1-yl]acetyl]piperazin-1-yl]pyrimidin-5-yl]-4-oxoquinazoline]	33	
	CCN(C)S(=O)(=O)Nc1ccc(F)c(Oc2ccc3ncn(-c4ccc(N5CCN(C(=O)CN6CCC(c7cc(OC)c(NC8CCC(=O)NC8=O)cc7F)CC6)CC5)nc4)c(=O)c3c2)c1C#N (stereo not drawn) [Example 90, 6-[2-cyano-3-[[ethyl(methyl)sulfamoyl]amino]-6-fluorophenoxy]-3-[6-[4-[2-[4-[4-[(2,6-dioxopiperidin-3-yl)amino]-2-fluoro-5-methoxyphenyl]piperidin-1-yl]acetyl]piperazin-1-yl]pyridin-3-yl]-4-oxoquinazoline]	23.5	10.7
	CCN(C)S(=O)(=O)Nc1ccc(F)c(Oc2ccc3ncn(-c4cnc(N5CCN(C(=O)CN6CCC(c7ccc(N[C@H]8CCC(=O)NC8=O)cc7F)CC6)CC5)nc4)c(=O)c3c2)c1C#N [Example 92, 6-[2-cyano-3-[[ethyl(methyl)sulfamoyl]amino]-6-fluorophenoxy]-3-[2-[4-[2-[4-[4-[[(3S)-2,6-dioxopiperidin-3-yl]amino]-2-fluorophenyl]piperidin-1-yl]acetyl]piperazin-1-yl]pyrimidin-5-yl]-4-oxoquinazoline]	8.71	7.37
14.1	CCN(C)S(=O)(=O)Nc1ccc(F)c(Oc2ccc3ncn(-c4ccc(N5CCN(C(=O)CN6CCC(c7ccc(N[C@@H]8CCC(=O)NC8=O)cc7F)CC6)CC5)nc4)c(=O)c3c2)c1C#N [Example 93, 6-[2-cyano-3-[[ethyl(methyl)sulfamoyl]amino]-6-fluorophenoxy]-3-[6-[4-[2-[4-[4-[[(3R)-2,6-dioxopiperidin-3-yl]amino]-2-fluorophenyl]piperidin-1-yl]acetyl]piperazin-1-yl]pyridin-3-yl]-4-oxoquinazoline]	28	
10.5	CCN(C)S(=O)(=O)Nc1ccc(F)c(Oc2ccc3ncn(-c4ccc(N5CCN(C(=O)CN6CCC(c7ccc(N[C@H]8CCC(=O)NC8=O)cc7F)CC6)CC5)nc4)c(=O)c3c2)c1C#N [Example 94, 6-[2-cyano-3-[[ethyl(methyl)sulfamoyl]amino]-6-fluorophenoxy]-3-[6-[4-[2-[4-[4-[[(3S)-2,6-dioxopiperidin-3-yl]amino]-2-fluorophenyl]piperidin-1-yl]acetyl]piperazin-1-yl]pyridin-3-yl]-4-oxoquinazoline]	21.5	
	CCN(C)S(=O)(=O)Nc1ccc(F)c(Oc2ccc3ncn(-c4cnc(N5CCN(C(=O)CN6CCC(c7ccc(N[C@@H]8CCC(=O)NC8=O)cc7F)CC6)CC5)nc4)c(=O)c3c2)c1C#N [Example 95, 6-[2-cyano-3-[[ethyl(methyl)sulfamoyl]amino]-6-fluorophenoxy]-3-[2-[4-[2-[4-[4-[[(3R)-2,6-dioxopiperidin-3-yl]amino]-2-fluorophenyl]piperidin-1-yl]acetyl]piperazin-1-yl]pyrimidin-5-yl]-4-oxoquinazoline]	10.7	10.4
	CO[C@@H]1CCN(S(=O)(=O)Nc2ccc(F)c(Oc3ccc4ncn(-c5cnc(N6CCN(C(=O)CN7CCC(c8ccc(N[C@H]9CCC(=O)NC9=O)cc8F)CC7)CC6)nc5)c(=O)c4c3)c2C#N)C1 [Example 96, (3R)—N-[2-cyano-3-[3-[2-[4-[2-[4-[4-[[(3S)-2,6-dioxopiperidin-3-yl]amino]-2-fluorophenyl]piperidin-1-yl]acetyl]piperazin-1-yl]pyrimidin-5-yl]-4-oxoquinazolin-6-yl]oxy-4-fluorophenyl]-3-methoxypyrrolidine-1-sulfonamide]	9.91	8.43
10.6	CO[C@@H]1CCN(S(=O)(=O)Nc2ccc(F)c(Oc3ccc4ncn(-c5cnc(N6CCN(C(=O)CN7CCC(c8ccc(N[C@@H]9CCC(=O)NC9=O)cc8F)CC7)CC6)nc5)c(=O)c4c3)c2C#N)C1 [Example 97, (3R)—N-[2-cyano-3-[3-[2-[4-[2-[4-[4-[[(3R)-2,6-dioxopiperidin-3-yl]amino]-2-fluorophenyl]piperidin-1-yl]acetyl]piperazin-1-yl]pyrimidin-5-yl]-4-oxoquinazolin-6-yl]oxy-4-fluorophenyl]-3-methoxypyrrolidine-1-sulfonamide]	8.41	
	CCN(C)S(=O)(=O)Nc1ccc(F)c(Oc2ccc3ncn(-c4cnc(N5CCN(C(=O)[C@H](CO)N6CCC(c7ccc(N[C@H]8CCC(=O)NC8=O)cc7F)CC6)CC5)nc4)c(=O)c3c2)c1C#N [Example 98, 6-[2-cyano-3-[[ethyl(methyl)sulfamoyl]amino]-6-fluorophenoxy]-3-[2-[4-[(2S)-2-[4-[4-[[(3S)-2,6-dioxopiperidin-3-yl]amino]-2-fluorophenyl]piperidin-1-yl]-3-hydroxypropanoyl]piperazin-1-yl]pyrimidin-5-yl]-4-oxoquinazoline]		10.1
11.4	CCN(C)S(=O)(=O)Nc1ccc(F)c(Oc2ccc3ncn(-c4cnc(N5CCN(C(=O)CN6CCC(c7ccc(N[C@@H]8CCC(=O)NC8=O)cc7F)CC6)CC5)nc4)c(=O)c3c2OC)c1C#N [Example 99, 6-[2-cyano-3-[[ethyl(methyl)sulfamoyl]amino]-6-fluorophenoxy]-3-[2-[4-[2-[4-[4-[[(3R)-2,6-dioxopiperidin-3-yl]amino]-2-fluorophenyl]piperidin-1-yl]acetyl]piperazin-1-yl]pyrimidin-5-yl]-5-methoxy-4-oxoquinazoline]	34.2	
8.4	CCN(C)S(=O)(=O)Nc1ccc(F)c(Oc2ccc3ncn(-c4cnc(N5CCN(C(=O)CN6CCC(c7ccc(N[C@H]8CCC(=O)NC8=O)cc7F)CC6)CC5)nc4)c(=O)c3c2OC)c1C#N [Example 100, 6-[2-cyano-3-[[ethyl(methyl)sulfamoyl]amino]-6-fluorophenoxy]-3-[2-[4-[2-[4-[4-[[(3S)-2,6-dioxopiperidin-3-yl]amino]-2-fluorophenyl]piperidin-1-yl]acetyl]piperazin-1-yl]pyrimidin-5-yl]-5-methoxy-4-oxoquinazoline]	16.4	
11.6	CCN(C)S(=O)(=O)Nc1ccc(F)c(Oc2ccc3ncn(-c4cnc(N5CCN(C(=O)CN6CCC(c7ccc(N[C@@H]8CCC(=O)NC8=O)cc7F)CC6)CC5)nc4)c(=O)c3c2N)c1C#N [Example 101, 5-amino-6-[2-cyano-3-[[ethyl(methyl)sulfamoyl]amino]-6-fluorophenoxy]-3-[2-[4-[2-[4-[4-[[(3R)-2,6-dioxopiperidin-3-yl]amino]-2-fluorophenyl]piperidin-1-yl]acetyl]piperazin-1-yl]pyrimidin-5-yl]-4-oxoquinazoline]	27.7	
	N#Cc1c(NS(=O)(=O)C2CCCCC2)ccc(F)c1Oc1ccc2ncn(-c3cnc(N4CCN(C(=O)CN5CCC(c6ccc(N[C@H]7CCC(=O)NC7=O)cc6F)CC5)CC4)nc3)c(=O)c2c1 [Example 105, N-[2-cyano-3-[3-[2-[4-[2-[4-[4-[[(3S)-2,6-dioxopiperidin-3-yl]amino]-2-fluorophenyl]piperidin-1-yl]acetyl]piperazin-1-yl]pyrimidin-5-yl]-4-oxoquinazolin-6-yl]oxy-4-fluorophenyl]cyclohexanesulfonamide]	17.7	11.8
	N#Cc1c(NS(=O)(=O)N2CCCCC2)ccc(F)c1Oc1ccc2ncn(-c3cnc(N4CCN(C(=O)CN5CCC(c6ccc(N[C@@H]7CCC(=O)NC7=O)cc6F)CC5)CC4)nc3)c(=O)c2c1 [Example 106, N-[2-cyano-3-[3-[2-[4-[2-[4-[4-[[(3R)-2,6-dioxopiperidin-3-yl]amino]-2-fluorophenyl]piperidin-1-yl]acetyl]piperazin-1-yl]pyrimidin-5-yl]-4-oxoquinazolin-6-yl]oxy-4-fluorophenyl]piperidine-1-sulfonamide]	43.6	16.7
	N#Cc1c(NS(=O)(=O)N2CCCC2)ccc(F)c1Oc1ccc2ncn(-c3cnc(N4CCN(C(=O)CN5CCC(c6ccc(N[C@H]7CCC(=O)NC7=O)cc6F)CC5)CC4)nc3)c(=O)c2c1 [Example 107, N-[2-cyano-3-[3-[2-[4-[2-[4-[4-[[(3S)-2,6-dioxopiperidin-3-yl]amino]-2-fluorophenyl]piperidin-1-yl]acetyl]piperazin-1-yl]pyrimidin-5-yl]-4-oxoquinazolin-6-yl]oxy-4-fluorophenyl]pyrrolidine-1-sulfonamide]	12.9	9.8
10.9	N#Cc1c(NS(=O)(=O)C2CCCC2)ccc(F)c1Oc1ccc2ncn(-c3cnc(N4CCN(C(=O)CN5CCC(c6ccc(N[C@@H]7CCC(=O)NC7=O)cc6F)CC5)CC4)nc3)c(=O)c2c1 [Example 108, N-[2-cyano-3-[3-[2-[4-[2-[4-[4-[[(3R)-2,6-dioxopiperidin-3-yl]amino]-2-fluorophenyl]piperidin-1-yl]acetyl]piperazin-1-yl]pyrimidin-5-yl]-4-oxoquinazolin-6-yl]oxy-4-fluorophenyl]cyclopentanesulfonamide]	17.8	
